The values that follow come from patent US20250276979A1, “SARS-COV2 MAIN PROTEASE INHIBITORS” (Gilead Sciences, Inc., priority 2024, published 2025).

In one experiment the test system is SARS-CoV-2-NLuc in A549-hACE2 cells. The experiment can be described thus: microbe, parasite or virus in culture. The class given is cell-based. Particulars: Severe acute respiratory syndrome coronavirus 2, 48 h, read-out: MPro EC50.
Turning to `COc1ccc(Cl)c(-c2cc3[nH]c(=O)n([C@H]4CCCNC(=O)C4)c(=O)c3s2)c1` (single isomer, unassigned) [Example 24], the EC50 was determined as 142 nM. Still for that read-out and setting: in the case of `O=C1C[C@@H](n2c(=O)[nH]c3cc(-c4ccccc4Cl)sc3c2=O)CCCN1` (single isomer, unassigned) [Example 22] it was 155 nM; in that of `COc1ccc(Cl)c(-c2cc3[nH]c(=O)n([C@@H]4CCCNC(=O)C4)c(=O)c3s2)c1` (single isomer, unassigned) [Example 23], 12.7 nM.

The experiment is the same for the next values; noted with them: Severe acute respiratory syndrome coronavirus 2, 48 h; read-out: MPro EC50.
As to `COc1cc(-c2cc3c(s2)c(=O)n([C@@H]2CCCNC(=O)C2)c(=O)n3CCC#N)c(Cl)cc1F` [Example 48, (R)-3-(6-(2-chloro-4-fluoro-5-methoxyphenyl)-2,4-dioxo-3-(2-oxoazepan-4-yl)-3,4-dihydrothieno[3,2-d]pyrimidin-1(2H)-yl)propanenitrile], the half-maximal effective concentration (EC50) worked out at 16.4 nM.

As for `COc1cc(-c2cc3c(s2)c(=O)n([C@@H]2CCCNC(=O)C2)c(=O)n3CC2(C#N)CC2)c(Cl)cc1F` [Example 36, (R)-1-((6-(2-chloro-4-fluoro-5-methoxyphenyl)-2,4-dioxo-3-(2-oxoazepan-4-yl)-3,4-dihydrothieno[3,2-d]pyrimidin-1(2H)-yl)methyl)cyclopropane-1-carbonitrile], the EC50 is less than 4.07 nM. Consider `COc1cc(-c2cc3c(s2)c(=O)n([C@@H]2CCCNC(=O)C2)c(=O)n3CC(F)F)c(Cl)cc1F` [Example 43, (R)-6-(2-chloro-4-fluoro-5-methoxyphenyl)-1-(2,2-difluoroethyl)-3-(2-oxoazepan-4-yl)thieno[3,2-d]pyrimidine-2,4(1H,3H)-dione], for which the EC50 worked out at 34.4 nM.

In the case of `O=C1CC(n2c(=O)[nH]c3cc(-c4c(Cl)cccc4-c4ccc5c(c4)OC(F)(F)O5)sc3c2=O)CCN1` (centres unmarked) [Example 13, 6-(2-chloro-6-(2,2-difluorobenzo[d][1,3]dioxol-5-yl)phenyl)-3-(2-oxopiperidin-4-yl)thieno[3,2-d]pyrimidine-2,4(1H,3H)-dione], the concentration giving a half-maximal response (EC50) turned out to be 157 nM.

For `COc1cc(-c2cc3c(s2)c(=O)n([C@H]2CCCNC(=O)C2)c(=O)n3C)c(Cl)cc1F` [Example 33, (S)-6-(2-chloro-4-fluoro-5-methoxyphenyl)-1-methyl-3-(2-oxoazepan-4-yl)thieno[3,2-d]pyrimidine-2,4(1H,3H)-dione], the EC50 stood at 747 nM. `COc1cc(-c2cc3[nH]c(=O)n(C4CCCCNC(=O)C4)c(=O)c3s2)c(Cl)cc1F` (centres unmarked) [Example 58, 6-(2-chloro-4-fluoro-5-methoxyphenyl)-3-(2-oxoazocan-4-yl)thieno[3,2-d]pyrimidine-2,4(1H,3H)-dione]: the EC50 came to 723 nM. Turning to `COc1cc(-c2cc3[nH]c(=O)n([C@H]4CNC(=O)C4)c(=O)c3o2)c(Cl)cc1F` [Example 57, 6-(2-chloro-4-fluoro-5-methoxy-phenyl)-3-[(3R)-5-oxopyrrolidin-3-yl]-1H-furo[3,2-d]pyrimidine-2,4-dione], the EC50 is more than 1000 nM. As for `COc1ccc(Cl)c(-c2ccc3c(=O)n(C4CCCNC(=O)C4)c(=O)[nH]c3c2)c1` (centres unmarked) [Example 27, 7-(2-chloro-5-methoxyphenyl)-3-(2-oxoazepan-4-yl)quinazoline-2,4(1H,3H)-dione], the EC50 stood at 646 nM. For `COc1cc(-c2cc3[nH]c(=O)n([C@@H]4CCCNC(=O)C4)c(=O)c3s2)c(C)cc1F` [Example 45, (R)-6-(4-fluoro-5-methoxy-2-methylphenyl)-3-(2-oxoazepan-4-yl)thieno[3,2-d]pyrimidine-2,4(1H,3H)-dione], the concentration for a half-maximal effect (EC50) came to 137 nM. Still for that read-out and setting: as for `COc1cnc(Cl)c(-c2cc3[nH]c(=O)n(C4CCNC(=O)C4)c(=O)c3s2)c1` (centres unmarked) [Example 15, 6-(2-chloro-5-methoxypyridin-3-yl)-3-(2-oxopiperidin-4-yl)thieno[3,2-d]pyrimidine-2,4(1H,3H)-dione], the figure is 18600 nM; as for `O=C1C[C@@H](n2c(=O)[nH]c3cc(-c4ccccc4Cl)sc3c2=O)CCN1` [Example 5, (S)-6-(2-chlorophenyl)-3-(2-oxopiperidin-4-yl)thieno[3,2-d]pyrimidine-2,4(1H,3H)-dione], 92.7 nM; as for `COc1cc(-c2cc3c(s2)c(=O)n([C@@H]2CCCNC(=O)C2)c(=O)n3CC#N)c(Cl)cc1F` [Example 34, (R)-2-(6-(2-chloro-4-fluoro-5-methoxyphenyl)-2,4-dioxo-3-(2-oxoazepan-4-yl)-3,4-dihydrothieno[3,2-d]pyrimidin-1(2H)-yl)acetonitrile], 3.03 nM. As for `COc1ccc(C#N)c(-c2cc3[nH]c(=O)n([C@H]4CCNC(=O)C4)c(=O)c3s2)c1` [Example 26, (S)-2-(2,4-dioxo-3-(2-oxopiperidin-4-yl)-1,2,3,4-tetrahydrothieno[3,2-d]pyrimidin-6-yl)-4-methoxybenzonitrile], the half-maximal effective concentration (EC50) turned out to be 2120 nM. As to `COc1cc(-c2cc3[nH]c(=O)n([C@@H]4CCCNC(=O)C4)c(=O)c3s2)c(Cl)cc1Cl` [Example 47, (R)-6-(2,4-dichloro-5-methoxyphenyl)-3-(2-oxoazepan-4-yl)thieno[3,2-d]pyrimidine-2,4(1H,3H)-dione], the 50% effective concentration (EC50) was found to be 27.7 nM. As for `COc1cc(-c2cc3c(s2)c(=O)n([C@@H]2CCCNC(=O)C2)c(=O)n3CCC#N)c(C#N)cc1F` [Example 49, (R)-2-(1-(2-cyanoethyl)-2,4-dioxo-3-(2-oxoazepan-4-yl)-1,2,3,4-tetrahydrothieno[3,2-d]pyrimidin-6-yl)-5-fluoro-4-methoxybenzonitrile], the 50% effective concentration (EC50) was more than 1000 nM.

With `COc1cc(Cl)c(-c2cc3[nH]c(=O)n([C@H]4CCNC(=O)C4)c(=O)c3s2)cc1OC` [Example 18, (S)-6-(2-chloro-4,5-dimethoxyphenyl)-3-(2-oxopiperidin-4-yl)thieno[3,2-d]pyrimidine-2,4(1H,3H)-dione], the concentration giving a half-maximal response (EC50) stood at 1150 nM. As to `O=C1C[C@@H](n2c(=O)[nH]c3cc(-c4ccccc4Cl)sc3c2=O)CN1` [Example 3, 6-(2-chlorophenyl)-3-[(3R)-5-oxopyrrolidin-3-yl]-1H-thieno[3,2-d]pyrimidine-2,4-dione], the EC50 was found to be 6830 nM. Take `O=C1C[C@H](n2c(=O)[nH]c3cc(-c4ccccc4Cl)sc3c2=O)CCN1` [Example 4, (R)-6-(2-chlorophenyl)-3-(2-oxopiperidin-4-yl)thieno[3,2-d]pyrimidine-2,4(1H,3H)-dione]: the EC50 amounted to 978 nM. Same read-out and setting: in the case of `COc1cc(-c2cc3[nH]c(=O)n([C@@H]4CCCNC(=O)C4)c(=O)c3s2)c(Cl)cc1F` [Example 30, (R)-6-(2-chloro-4-fluoro-5-methoxyphenyl)-3-(2-oxoazepan-4-yl)thieno[3,2-d]pyrimidine-2,4(1H,3H)-dione] it was 7.73 nM; in that of `COc1cc(-c2cc3[nH]c(=O)n(C4CCNC(=O)C4)c(=O)c3s2)c(Cl)cc1F` (centres unmarked) [Example 14, 6-(2-chloro-4-fluoro-5-methoxyphenyl)-3-(2-oxopiperidin-4-yl)thieno[3,2-d]pyrimidine-2,4(1H,3H)-dione], 318 nM; in that of `COc1cc(-c2cc3[nH]c(=O)n([C@@H]4CCCNC(=O)C4)c(=O)c3cc2OC)c(C#N)cc1F` [Example 56, (R)-5-fluoro-4-methoxy-2-(6-methoxy-2,4-dioxo-3-(2-oxoazepan-4-yl)-1,2,3,4-tetrahydroquinazolin-7-yl)benzonitrile], 795 nM. The same measure, in the same setting: in the case of `COc1cc(-c2cc3[nH]c(=O)n([C@@H]4CCCNC(=O)C4)c(=O)c3o2)c(Cl)cc1F` [Example 59, (R)-6-(2-chloro-4-fluoro-5-methoxyphenyl)-3-(2-oxoazepan-4-yl)furo[3,2-d]pyrimidine-2,4(1H,3H)-dione] it was 651 nM. `COc1cc(-c2cc3[nH]c(=O)n(C4CC(=O)NCC(C)(C)C4)c(=O)c3s2)c(Cl)cc1F` (centres unmarked) [Example 55, 6-(2-chloro-4-fluoro-5-methoxyphenyl)-3-(6,6-dimethyl-2-oxoazepan-4-yl)thieno[3,2-d]pyrimidine-2,4(1H,3H)-dione]: the EC50 came to 102 nM.
